# pEC50, pIC50: −log10 of the molar value.
# Key:
# rats = experiment: Inhibitory activity on vasoconstriction in vivo in rats (renal ischaemia, renal perfusion by Doppler); design: species or system rat; settings: 45 minutes renal ischaemia; compound given 10 minutes before, 5 mg/kg i.a. or 10 mg/kg i.v.; control tests 43±4% reduction vs preischaemic value
# Protocol: III. The inhibitory activity of the compounds of formula I on vasoconstriction can be observed in vivo in rats in the test procedure described hereinafter:
# Rats were anaesthetized with Na thiobutabarbital (100 mg/kg i.p.). A catheter for measuring the systemic arterial blood pressure was placed through the femoral artery and a catheter was placed in the vena cava via the femoral vein for injection of the test compounds. A Doppler sonde was placed around the left renal artery and attached to a Doppler measuring apparatus. A renal ischaemia was produced by pinching off the left renal artery at its point of exit for 45 minutes. 10 minutes prior to the induction of the ischaemia the test compounds were administered intraarterially (i.a.) in dosages of 5 mg/kg or intravenously (i.v.) in dosages of 10 mg/kg. In control tests, the renal perfusion was reduced by 43±4% compared to the preischaemic value.
# endothelin receptors = experiment: Inhibition of endothelin binding to human placenta membranes; settings: 125I-endothelin 20 pM, 20° C. for 2 hours or 4° C. for 24 hours, read-out: IC50 (concentration required to inhibit 50% of the specific binding of 125I-endothelin)
# Protocol: I: Inhibition of endothelin binding to human placenta membranes (see. Life Sci 44:1429 (1989))
# Human placenta is homogenized in 5 mM Tris buffer, pH 7.4, which contains 1 mM MgCl2 and 250 mM sucrose. The homogenizate is centrifuged at 4° C. and 3000 g for 15 minutes, the supernatant containing the plasma membrane fraction is centrifuged with 72000 g for 30 minutes and the precipitate is washed with 75 mM Tris buffer, pH 7.4, which contains 25 mM MgCl2. Thereafter, precipitate obtained from, in each case, 10 g of original tissue is suspended in 1 ml of 75 mM Tris buffer, pH 7.4, containing 25 mM MgCl2 and 250 mM sucrose, and freeze-dried at -20° C. in 1 ml aliquots.
# For the binding assay, the freeze-dried membrane preparations are thawed and, after centrifugation at 20° C. and 25000 g for 10 minutes, re-suspended in assay buffer (50 mM Tris buffer, pH 7.4, containing 25 mM MnCl2, 1 mM EDTA and 0.5% of bovine serum albumin). […] of this membrane suspension containing […] of protein are incubated with […] of ^125 I-endothelin (specific activity 2200 Ci/mMol) in assay buffer (25000 cpm, final concentration 20 pM) and […] of assay buffer containing varying concentrations of test compound. The incubation is carried out at 20° C. for 2 hours or at 4° C. for 24 hours. The separation of free and membrane-bound radioligands is carried out by filtration over a glass fibre filter.
# The inhibitory activity of compounds of formula I determined in this test procedure is given in Table 1 as the IC50, that is, as the concentration […] which is required to inhibit 50% of the specific binding of ^125 I-endothelin.
# [1] = system: isolated rat aorta rings (endothelin-induced contractions); experiment: Inhibition of endothelin-induced contractions in isolated rat aorta rings; format: cell-based, rat (adult Wistar-Kyoto); settings: in the absence of test compounds; read-out: EC50 of endothelin (concentration required for a half-maximum contraction)
# Protocol: II. Inhibition of endothelin-induced contractions in isolated rat aorta rings
# Rings with a length of 5 mm were cut out from the thorax aorta of adult Wistar-Kyoto rats. The endothelium was removed by lightly rubbing the internal surface. Each ring was immersed at 37° C. in 10 ml of Krebs-Henseleit solution in an isolated bath while gassing with 95% O2 and 5% CO2. The isometric stretching of the rings was measured. The rings were stretched to a pretension of 3 g. After incubation for 10 minutes with the test compound or vehicle, cumulative dosages of endothelin-1 were added. The activity of the test compound was determined by calculating the dosage ratios, that is, the shift to the right (shift to higher values) of the EC50 of endothelin induced by […] of test compound, with EC50 denoting the endothelin concentration required for a half-maximum contraction. […] The EC50 of endothelin in the absence of test compounds is 0.3 nM.
Molecule,pIC50 (endothelin receptors),% Decrease in renal perfusion (rats),pEC50 [1]
"COc1ccccc1Oc1c(NS(=O)(=O)c2ccc(C(C)(C)C)cc2)ncnc1OCCO [Example 1, p-t-butyl-N-[6-(2-hydroxyethoxy)-5-(o-methoxyphenoxy)-4-pyrimidinyl]benzenesulfonamide]",6.94,13.4 ± 5.2%,–
"COc1cccc(Oc2c(NS(=O)(=O)c3ccc(C(C)(C)C)cc3)ncnc2OCCO)c1 [Example 6, p-t-butyl-N-[6-(2-hydroxyethoxy)-5-(m-methoxyphenoxy)-4-pyrimidinyl]benzenesulphonamide]",6.70,11.7 ± 4.7%,–
"COc1ccccc1Oc1c(NS(=O)(=O)c2ccc(C(C)C)cc2)nc(-c2ccccc2)nc1OCCO [Example 12, N-[6-(2-hydroxyethoxy)-5-(o-methoxyphenoxy)-2-phenyl-4-pyrimidinyl]-p-isopropylbenzenesulfonamide]",6.90,–,–
"endothelin: endothelin-1, agonist added in cumulative dosages to contract rat aorta rings",–,–,9.52

# Further molecules by rising pIC50 (endothelin receptors), results first:
pIC50 (endothelin receptors),Molecule,% Decrease in renal perfusion (rats),pEC50 [1]
7.00,"COc1ccccc1Oc1c(NS(=O)(=O)c2ccc(C(C)C)cc2)ncnc1OCCO [Example 2, N-[6-(hydroxyethoxy)-5-(o-methoxyphenoxy)-4-pyrimidinyl]-p-isopropylbenzenesulfonamide]",–,–
7.00,"CC(C)(C)c1ccc(S(=O)(=O)Nc2ncnc(OCCO)c2Oc2ccc3c(c2)OCO3)cc1 [Example 27, N-[5-(1,3-benzodioxol-5-yloxy)-6-(2-hydroxyethoxy)-4-pyrimidinyl]-p-tert-butylbenzenesulfonamide]",–,–
7.14,"COc1ccccc1Oc1c(NS(=O)(=O)c2ccc(C(C)C)cc2)nc(C)nc1OCCO [Example 24, N-[6-(2-hydroxyethoxy)-5-(o-methoxyphenoxy)-2-methyl-4-pyrimidinyl]-p-isopropylbenzenesulfonamide]",–,–
7.30,COc1ccccc1Oc1c(NS(=O)(=O)c2ccc(C(C)C)cc2)nc(C(F)(F)F)nc1OCCO [Example 25],–,–
